Results on 14 compounds are retold here after article PMC9537541, “Synthesis and anticancer activity of new benzensulfonamides incorporating s-triazines as cyclic linkers for inhibition of carbonic anhydrase IX” (Scientific Reports, 2022).

pKi: −log10 of the molar value. Where a name gives a salt, the structure may show the parent alone. Where only a bound is given, the exact number is not on record here.

In one series the target is T1, hCA II (Homo sapiens, UniProt P00918).
T1 construct: made in house
Nature of the series: stopped-flow CO2 hydrase assay, hCA II. To be noted: stopped flow technique, mean from 3 different assays. The class given is biochemical. The protocol: (§1) Target compounds of series (A) and (B) were screened as inhibitors concerning the physiologically relevant hCAs; cytosolic isoforms (hCA I and II) in addition to the transmembrane tumor related isoforms (hCA IX and XII) via a stopped-flow assay of carbonic anhydrase catalyzed CO2 hydration. Acetazolamide (AAZ), CA I drug, was also incorporated in the assays as a standard drug. […] Four CA isoforms inhibition activity was measured by assaying CA catalyzed CO2 hydration via an applied photophysics stopped-flow instrument. PRISM 3 and the Cheng-prusoff equation were used to determine the inhibition constant by non-linear least square methods as reported, and represent the mean from three different determination at least. All tested carbonic anhydrase isoforms were recombinant proteins prepared in lab as described earlier,[57].

The next series deals with Leukemia (SR). Nature of the series: NCI single dose SRB screen, SR. The class given is cell-based. To be noted: 48 h, 10^−5 M single dose, read-out: GI% Leukemia (SR). As to the method:
(§2) Target compounds in series (A) and (B), were submitted to the National Cancer Institute (NCI) Developmental Therapeutic Program (www.dtp.nci.nih.gov), where they have been assessed, in vitro for their anticancer activity. Two series (A) and (B), were screened in a single dose (10 µM) versus full panel composed of 60 cancer cell lines, in accordance with protocol of drug evaluation branch, NCI, Bethesda. Sulforhodamine B (SRB) colorimetric assay was used to determine cell growth and viability,[40].
(§3) Protocol of Drug Evaluation Branch, NCI, Bethesda, was adopted in the antitumor assay. Assessment of cell growth and viability was carried out utilizing SRB assay and 48 h drug exposure protocol as previously reported,[40].

The next series concerns the target T2, hCA IX (Homo sapiens, UniProt Q16790).
T2 construct: made in house
Nature of the series: stopped-flow CO2 hydrase assay, hCA IX. The class given is biochemical. To be noted: for Selectivity index (SI) I/IX: hCA IX over off-target hCA I; for Selectivity index (SI) II/IX: hCA IX over off-target hCA II; for pKi: stopped flow technique, mean from 3 different assays. As to the method:
as §1

The next series addresses T3, hCA I (Homo sapiens, UniProt P00915).
T3 construct: made in house
Nature of the series: stopped-flow CO2 hydrase assay, hCA I. To be noted: stopped flow technique, mean from 3 different assays. The class given is biochemical. As to the method: as §1

In another series the test system is CNS cancer (SNB-75). Nature of the series: NCI single dose SRB screen, SNB-75. The class given is cell-based. To be noted: Homo sapiens, SNB-75, 48 h, 10^−5 M single dose, read-out: GI% CNS cancer (SNB-75). The protocol: as §2, §3
A further series deals with T4, hCA XII (Homo sapiens, UniProt O43570).
T4 construct: made in house
Nature of the series: stopped-flow CO2 hydrase assay, hCA XII. Format: biochemical. To be noted: for Selectivity index (SI) I/XII: hCA XII over off-target hCA I; for Selectivity index (SI) II/XII: hCA XII over off-target hCA II; for pKi: stopped flow technique, mean from 3 different assays. As to the method:
as §1

In another series the test system is Renal cancer (UO-31). Nature of the series: NCI single dose SRB screen, UO-31. The class given is cell-based. The following applies: Homo sapiens, UO-31, 48 h, 10^−5 M single dose, read-out: GI% Renal cancer (UO-31). The protocol: as §2, §3
The subject of series [1] is Breast cancer (MDA-MB-468). Nature of the series: NCI single dose SRB screen, MDA-MB-468. Format: cell-based. To be noted: Homo sapiens, MDA-MB-468, 48 h, 10^−5 M single dose, 48 h, SRB; read-out: GI% Breast cancer (MDA-MB-468). As to the method:
as §2, §3

T4 sequence (O43570 25-354): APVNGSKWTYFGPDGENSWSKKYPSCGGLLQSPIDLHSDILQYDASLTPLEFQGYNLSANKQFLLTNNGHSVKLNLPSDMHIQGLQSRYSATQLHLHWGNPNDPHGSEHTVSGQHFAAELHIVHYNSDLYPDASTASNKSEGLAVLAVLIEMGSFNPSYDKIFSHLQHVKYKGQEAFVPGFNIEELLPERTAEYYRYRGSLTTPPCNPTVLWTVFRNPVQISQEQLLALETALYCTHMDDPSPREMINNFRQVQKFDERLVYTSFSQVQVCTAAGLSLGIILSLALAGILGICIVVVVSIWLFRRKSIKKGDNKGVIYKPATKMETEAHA
T3 sequence (P00915 whole entry): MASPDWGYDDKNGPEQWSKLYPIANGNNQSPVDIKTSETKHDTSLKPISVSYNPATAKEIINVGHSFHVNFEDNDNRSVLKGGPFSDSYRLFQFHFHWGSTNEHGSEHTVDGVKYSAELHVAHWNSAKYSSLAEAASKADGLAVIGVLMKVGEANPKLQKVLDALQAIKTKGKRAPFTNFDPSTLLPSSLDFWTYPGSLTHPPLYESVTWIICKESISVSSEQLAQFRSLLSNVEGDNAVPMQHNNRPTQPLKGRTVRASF

In turn, `COc1ccc(/C=C(\C#N)c2nc(N)nc(Nc3ccc(S(N)(=O)=O)cc3)n2)cc1` [Compound 12c, 4-({4-Amino-6-[(1E)-1-cyano-2-(4-methoxyphenyl)eth-1-en-1-yl]-1,3,5-triazin-2-yl}amino)benzene-1-sulfonamide] yielded a melting point of 281 to 283 °C. The same compound had a pKi on hCA II of 5.71. Also, in the series with Leukemia (SR), the inhibition at 10 µM turned out to be 16%. Besides, on hCA IX, the “Selectivity index (SI) I/IX” value was 0.7, the “Selectivity index (SI) II/IX” value is given as 1.4 and the negative-log Ki (pKi) is 5.86. In addition, at hCA I, the pKi was 6.02. Besides, the inhibition at 10 µM with CNS cancer (SNB-75) is at most 10%. On hCA XII, the “Selectivity index (SI) I/XII” value was found to be 0.1, the “Selectivity index (SI) II/XII” value was 0.2 and the pKi is 5.06. Besides, the inhibition at 10 µM in the series on Renal cancer (UO-31) amounted to 14%. The inhibition at 10 µM in series [1] came out at 22%.

With `Cc1ccc(/C=C(\C#N)c2nc(N)nc(Nc3ccc(S(N)(=O)=O)cc3)n2)cc1` [Compound 12g, 4-({4-Amino-6-[(1E)-1-cyano-2-(4-methylphenyl)eth-1-en-1-yl]-1,3,5-triazin-2-yl}amino)benzene-1-sulfonamide], the melting point lay in the range of 204 to 206 °C. On hCA II, this compound gave a pKi of 6.16. Besides, the inhibition at 10 µM in the series with Leukemia (SR) is at most 10%. In addition, on hCA IX, the “Selectivity index (SI) I/IX” value was 0.8, the “Selectivity index (SI) II/IX” value was found to be 3.6 and the negative-log Ki (pKi) was 6.71. Moreover, the pKi at hCA I was 6.80. In the series with CNS cancer (SNB-75), the inhibition at 10 µM is 15%. In addition, at hCA XII, the “Selectivity index (SI) I/XII” value came out at 0.07, the “Selectivity index (SI) II/XII” value came out at 0.3 and the negative-log Ki (pKi) is 5.64. In the series on Renal cancer (UO-31), the inhibition at 10 µM came out at 11%. Also, the inhibition at 10 µM in series [1] amounted to 11%.

In the case of `N#C/C(=C\c1ccc2c(c1)OCO2)c1nc(N)nc(Nc2ccc(S(N)(=O)=O)cc2)n1` [Compound 12e, 4-({4-Amino-6-[(1E)-2-(2H-1,3-benzodioxol-5-yl)-1-cyanoeth-1-en-1-yl]-1,3,5-triazin-2-yl}amino)benzene-1-sulfonamide], the melting point fell in the range of 269 to 271 °C. The compound also gave a pKi on hCA II of 6.05. In the series with Leukemia (SR), the inhibition at 10 µM turned out to be 11%. On hCA IX, the “Selectivity index (SI) I/IX” value was 4, the “Selectivity index (SI) II/IX” value came to 1 and the negative-log Ki (pKi) was 6.01. For the same compound, the negative logarithm of the Ki (pKi) on hCA I was 5.39. The inhibition at 10 µM in the series on CNS cancer (SNB-75) was at most 10%. Also, at hCA XII, the “Selectivity index (SI) I/XII” value was determined as 0.5, the “Selectivity index (SI) II/XII” value was 0.1 and the pKi is 5.07. The inhibition at 10 µM in the series on Renal cancer (UO-31) came out at 13%. In addition, in series [1], the inhibition at 10 µM was 27%.

The compound `N#C/C(=C\c1cccc(Cl)c1)c1nc(N)nc(Nc2ccc(S(N)(=O)=O)cc2)n1` [Compound 12h, 4-({4-Amino-6-[(1E)-2-(3-chlorophenyl)-1-cyanoeth-1-en-1-yl]-1,3,5-triazin-2-yl}amino)benzene-1-sulfonamide] had a melting point of 222 to 224 °C. Further, at hCA II, the pKi is 6.49. For the same compound, the inhibition at 10 µM in the series on Leukemia (SR) turned out to be 27%. Also, at hCA IX, the “Selectivity index (SI) I/IX” value is listed as 9.7, the “Selectivity index (SI) II/IX” value stood at 6.1 and the pKi was 7.28. For the same compound, the negative logarithm of the Ki (pKi) at hCA I is 6.29. In the series with CNS cancer (SNB-75), the inhibition at 10 µM was at most 10%. Besides, on hCA XII, the “Selectivity index (SI) I/XII” value is 5.8, the “Selectivity index (SI) II/XII” value was found to be 3.6 and the negative logarithm of the Ki (pKi) is 7.06. In addition, in the series with Renal cancer (UO-31), the inhibition at 10 µM was at most 10%. Besides, the inhibition at 10 µM in series [1] stood at 11%.

Take `NC1=NC2(CCCCC2)NC(Nc2ccc(S(N)(=O)=O)cc2)=N1` [Compound 8b, 4-({4-Amino-1,3,5-triazaspiro[5.5]undeca-2,4-dien-2-yl}amino)benzene-1-sulfonamide]: the melting point lay within 270 to 272 °C. Besides, at hCA II, the pKi is 5.50. In addition, the inhibition at 10 µM in the series with Leukemia (SR) worked out at 15%. Also, at hCA IX, the “Selectivity index (SI) I/IX” value was 0.2, the “Selectivity index (SI) II/IX” value was found to be 1.4 and the pKi is 5.64. Besides, at hCA I, the negative logarithm of the Ki (pKi) was 6.45. In addition, the inhibition at 10 µM in the series with CNS cancer (SNB-75) stood at 21%. Besides, at hCA XII, the “Selectivity index (SI) I/XII” value was determined as 0.1, the “Selectivity index (SI) II/XII” value is 0.6 and the negative-log Ki (pKi) was 5.27. Further, in the series with Renal cancer (UO-31), the inhibition at 10 µM was at most 10%. In addition, the inhibition at 10 µM in series [1] was determined as 11%.

With `CC1CCC2(CC1)N=C(N)N=C(N)N2c1ccc(S(N)(=O)=O)cc1` (centres unmarked) (as salt: HCl) [Compound 6c, 4-(2,4-Diamino-9-methyl-1,3,5-triazaspiro[5.5]undeca-2,4-dien-1-yl)benzene-1-sulfonamide.HCl], the melting point is 245 to 247 °C.

The compound `CC1CCC2(CC1)N=C(N)N=C(N)N2c1ccc(S(=O)(=O)Nc2ccccn2)cc1` (centres unmarked) (as salt: HCl) [Compound 6f., 4-(2,4-Diamino-9-methyl-1,3,5-triazaspiro[5.5]undeca-2,4-dien-1-yl)-N-(pyridin-2-yl)benzene-1-sulfonamide.HCl] registered a melting point of 217 to 219 °C.

For `NC1=NC2(CCCCC2)N(c2ccc(S(=O)(=O)Nc3ccccn3)cc2)C(N)=N1` (as salt: HCl) [Compound 6e, 4-(2,4-Diamino-1,3,5-triazaspiro[5.5]undeca-2,4-dien-1-yl)-N-(pyridin-2-yl)benzene-1-sulfonamide.HCl], the melting point lay within 246 to 248 °C.

The compound `NC1=NC2(CCCC2)N(c2ccc(S(=O)(=O)Nc3ccccn3)cc2)C(N)=N1` (as salt: HCl) [Compound 6d, 4-(7,9-Diamino-6,8,10-triazaspiro[4.5]deca-7,9-dien-6-yl}-N-(pyridin-2-yl)benzene-1-sulfonamide.HCl] had a melting point of 221 to 223 °C.

In turn, `NC1=NC2(CCCCC2)N(c2ccc(S(N)(=O)=O)cc2)C(N)=N1` (as salt: HCl) [Compound 6b, 4-(2,4-Diamino-1,3,5-triazaspiro[5.5]undeca-2,4-dien-1-yl)benzene-1-sulfonamide.HCl] showed a melting point of 257 to 259 °C.

Take `NC1=NC2(CCCCCC2)N(c2ccc(S(=O)(=O)Nc3ccccn3)cc2)C(N)=N1` (as salt: HCl) [Compound 6g, 4-(2,4-Diamino-1,3,5-triazaspiro[5.6]dodeca-2,4-dien-1-yl)-N-(pyridin-2-yl)benzene-1-sulfonamide.HCl]: the melting point lay within 239 to 241 °C.

`NC1=NC2(CCCC2)N(c2ccc(S(N)(=O)=O)cc2)C(N)=N1` (as salt: HCl) [Compound 6a, 4-(7,9-Diamino-6,8,10-triazaspiro[4.5]deca-7,9-dien-6-yl) benzene-1-sulfonamide HCl] registered a melting point of 240 to 241 °C.

`CC1CCC2(CC1)N=C(N)N=C(N)N2c1ccc(S(=O)(=O)Nc2nccs2)cc1` (centres unmarked) (as salt: HCl) [Compound 6j, 4-(2,4-Diamino-9-methyl-1,3,5-triazaspiro[5.5]undeca-2,4-dien-1-yl)-N-(1,3-thiazol-2-yl)benzene-1-sulfonamide.HCl] gave a melting point of 243 to 245 °C.

`NC1=NC2(CCCCC2)N(c2ccc(S(=O)(=O)Nc3nccs3)cc2)C(N)=N1` (as salt: HCl) [Compound 6i, 4-(2,4-Diamino-1,3,5-triazaspiro[5.5]undeca-2,4-dien-1-yl)-N-(1,3-thiazol-2-yl)benzene-1-sulfonamide.HCl] gave a melting point of 245 to 247 °C.
